The values below come from patent publication US10752616B2, “Bicycloheteroaryl-heteroaryl-benzoic acid compounds as retinoic acid receptor beta (RARβ) agonists” (King's College London, priority 2014, dated 2020).

Molecules are shown by their SMILES.

Format in all cases: cell-based
In one test the target is RARβ (Mus musculus (Mouse), UniProt P22605). Kind of test: Transactivation assay for RARβ (gal4-RAR fusion, pFR-luc reporter, COS-7 cells), Table 2. The following applies: COS-7 reporter, mean of three or more determinations, species not stated (method: mouse or human). Here is the method:
(§1) Transcriptional transactivation assays were performed with gal4 fusion receptor constructs, created using each of the RAR ligand binding domains of either mouse or human, co-transfected with the pFR-luc (Stratagene) reporter construct in COS-7 cells.
(§2) Briefly, on day 1, 96 well plates were seeded with 8000 cells per well then left to recover overnight. On day 2, the cells were co-transfected with 100 ng of reporter plasmid and 10 ng of the appropriate receptor plasmid per well using lipofectamine (Invitrogen). On day 3, the lipofectamine containing media was replaced by a DMEM without phenol red, followed by the addition of test compound dissolved in 1 μL of DMSO to each well's 100 μL total volume. Finally, on day 4, the cells were lysed and their luciferase substrate was provided by the BrightGlo™ reagent (Promega), the plates were then read on the MicroBeta TriLux™ (Perkin Elmer).
(§3) Data for test compounds are quoted as EC50 values. Where replicate data has been generated, the data are quoted as the mean EC50 from the separate experiments.
(§4) EC50's values are reported as mean values of three or more determinations.

The target in another test is RARγ (Mus musculus (Mouse), UniProt P18911). Briefly: Transactivation assay for RARγ (gal4-RAR fusion, pFR-luc reporter, COS-7 cells), Table 2. Conditions: for EC50: Table 2, COS-7 reporter, mean of three or more determinations, inactive = no agonist action at highest concentration tested; for RARγ/RARβ ratio: fold-selectivity for RARβ over RARγ, >1 = selective for RARβ. The procedure: as §1, §2, §3, §4
Chain of RARγ (P18911 185-419): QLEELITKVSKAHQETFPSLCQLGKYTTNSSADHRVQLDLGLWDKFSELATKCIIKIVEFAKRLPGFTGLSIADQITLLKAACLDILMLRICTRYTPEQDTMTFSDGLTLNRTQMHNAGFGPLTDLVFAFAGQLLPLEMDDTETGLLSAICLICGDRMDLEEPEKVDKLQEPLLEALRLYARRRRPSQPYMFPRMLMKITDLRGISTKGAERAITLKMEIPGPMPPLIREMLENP

For another test, the target named is RARα (Mus musculus (Mouse), UniProt P11416). Briefly: Transactivation assay for RARα (gal4-RAR fusion, pFR-luc reporter, COS-7 cells), Table 2. Conditions: for EC50: Table 2, COS-7 reporter, mean of three or more determinations, inactive = no agonist action at highest concentration tested; for RARα/RARβ ratio: fold-selectivity for RARβ over RARα, >1 = selective for RARβ. Here is the method: as §1, §2, §3, §4
Chain of RARα (P11416 183-417): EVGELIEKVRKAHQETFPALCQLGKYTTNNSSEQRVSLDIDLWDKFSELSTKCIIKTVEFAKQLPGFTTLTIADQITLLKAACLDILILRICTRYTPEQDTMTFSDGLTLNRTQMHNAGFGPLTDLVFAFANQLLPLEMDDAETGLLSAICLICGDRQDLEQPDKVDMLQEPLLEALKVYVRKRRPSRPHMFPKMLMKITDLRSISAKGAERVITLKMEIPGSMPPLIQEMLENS

Chain of RARβ (P22605 210-444): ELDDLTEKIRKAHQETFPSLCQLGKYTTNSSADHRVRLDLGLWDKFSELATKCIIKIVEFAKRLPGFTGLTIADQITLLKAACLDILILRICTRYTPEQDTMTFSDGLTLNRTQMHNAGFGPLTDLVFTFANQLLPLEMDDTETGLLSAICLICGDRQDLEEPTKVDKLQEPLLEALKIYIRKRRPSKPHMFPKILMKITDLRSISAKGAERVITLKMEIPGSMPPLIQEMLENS

On to `Cc1c(Cl)cc(C)c2oc(-c3nc(-c4ccc(C(=O)O)cc4)no3)cc12` [BHBA-045, 4-(5-(5-Chloro-4,7-dimethylbenzofuran-2-yl)-1,2,4-oxadiazol-3-yl)benzoic acid], for which the figures for the EC50 at RARβ, at RARγ and at RARα were 4 nM, 40 nM and 91 nM, respectively.

Take `Cc1ccc(C)c2sc(-c3nc(-c4ccc(C(=O)O)cc4)no3)cc12` [BHBA-021, 4-(5-(4,7-Dimethylbenzo[b]thiophen-2-yl)-1,2,4-oxadiazol-3-yl)benzoic acid]: the EC50 at RARβ stood at 3.4 nM. At RARγ, it took 6.3 nM to reach a half-maximal effect (EC50) and the RARγ/RARβ ratio came out at 2. For the same compound, at RARα, a half-maximal effect (EC50) was put at 30 nM and the RARα/RARβ ratio stood at 9.

For `Cc1ccc(C)c2sc(-c3nc(-c4ccc(C(=O)O)cc4)no3)nc12` [BHBA-027, 4-(5-(4,7-Dimethylbenzo[d]thiazol-2-yl)-1,2,4-oxadiazol-3-yl)benzoic acid], on RARβ, the EC50 amounted to 9 nM. In addition, on RARγ, the response was half-maximal at 25 nM (EC50) and the RARγ/RARβ ratio is 2.7. Further, at RARα, the response was half-maximal at 61 nM (EC50) and the RARα/RARβ ratio is 6.7.

As for `Cc1ccc(C)c2c(C)c(-c3nc(-c4ccc(C(=O)O)cc4)no3)oc12` [BHBA-008, 4-(5-(3,4,7-Trimethylbenzofuran-2-yl)-1,2,4-oxadiazol-3-yl)benzoic acid], the EC50 turned out to be 1.9 nM on RARβ, 6.8 nM at RARγ and 17 nM at RARα.

As to `Cc1ccc(Cl)c2oc(-c3nc(-c4ccc(C(=O)O)cc4)no3)cc12` [BHBA-015, 4-(5-(7-Chloro-4-methylbenzofuran-2-yl)-1,2,4-oxadiazol-3-yl)benzoic acid], the EC50 stood at 2.9 nM on RARβ, 12 nM on RARγ and 23 nM on RARα.

Compound `Cc1cc(-c2noc(-c3cc4c(C)ccc(C)c4o3)n2)ccc1C(=O)O` [BHBA-006, 2-Methyl-4-(5-(4,7-dimethylbenzofuran-2-yl)-1,2,4-oxadiazol-3-yl)benzoic acid] yielded an EC50 at RARβ of 14 nM. Further, at RARγ, the EC50 came out at 25 nM and the RARγ/RARβ ratio is listed as 2. Besides, on RARα, the EC50 turned out to be 89 nM and the RARα/RARβ ratio is listed as 6.

Consider `Cc1ccc(C)c2oc(-c3nnc(-c4ccc(C(=O)O)cc4Cl)o3)cc12` [BHBA-036, 3-Chloro-4-(5-(4,7-dimethylbenzofuran-2-yl)-1,3,4-oxadiazol-2-yl)benzoic acid], for which the EC50 on RARβ stood at 28 nM; on RARγ, 58 nM; on RARα it was 225 nM. The RARγ/RARβ ratio on RARγ is on record as 2.1. In addition, at RARα, the RARα/RARβ ratio is listed as 8.

`Cc1ccc(C)c2sc(-c3nc(-c4ccc(C(=O)O)cc4Cl)no3)cc12` [BHBA-022, 3-Chloro-4-(5-(4,7-dimethylbenzo[b]thiophen-2-yl)-1,2,4-oxadiazol-3-yl)benzoic acid] registered a 50% effective concentration (EC50) on RARβ of 16 nM. In addition, on RARγ, it took 18 nM to reach a half-maximal effect (EC50) and the RARγ/RARβ ratio came out at 1.1. Further, at RARα, it took 77 nM to reach a half-maximal effect (EC50) and the RARα/RARβ ratio worked out at 5.

`O=C(O)c1ccc(-c2noc(-c3cc4c(Cl)ccc(Cl)c4o3)n2)c(Cl)c1` [BHBA-012, 3-Chloro-4-(5-(4,7-dichlorobenzofuran-2-yl)-1,2,4-oxadiazol-3-yl)benzoic acid]: the concentration giving a half-maximal response (EC50) at RARβ was determined as 17 nM. At RARγ, the EC50 turned out to be 17 nM and the RARγ/RARβ ratio was found to be 1. For the same compound, at RARα, a half-maximal response (EC50) required 67 nM and the RARα/RARβ ratio turned out to be 4.

Regarding `Cc1cc(-c2nc(-c3cc4c(C)ccc(C)c4o3)ns2)ccc1C(=O)O` [BHBA-043, 4-(3-(4,7-Dimethylbenzofuran-2-yl)-1,2,4-thiadiazol-5-yl)-2-methylbenzoic acid], the EC50 at RARβ turned out to be 5.2 nM; at RARγ, 25 nM; at RARα, 44 nM.

Take `Cc1cc(-c2noc(-c3cc4c(Cl)ccc(Cl)c4o3)n2)ccc1C(=O)O` [BHBA-013, 2-Methyl-4-(5-(4,7-dichlorobenzofuran-2-yl)-1,2,4-oxadiazol-3-yl)benzoic acid]: the EC50 on RARβ amounted to 16 nM; on RARγ, 110 nM; at RARα, 140 nM.
